Where a name gives a salt, the structure may show the parent alone. Read-outs that look alike come from different tables or passages of the source.
Legend:
[1] = 20° C.; cited from earlier work
[2] = Solubility of asenapine maleate in a variety of solvents; type: physicochemical; settings: organic solvent or mixture, read-out: solubility of asenapine maleate, Concentration
Procedure: The asenapine or a pharmaceutically acceptable salt thereof is dissolved in the organic phase or dispersed as a solid in the organic phase. In order to effectively dissolve the asenapine or a pharmaceutically acceptable salt thereof in the organic phase, a solution of the active principle in a solvent S2 can be provided, and this solution can be combined with the solution of the polymer in the organic solvent S1. It will be understood that, in this case, the solvents S1 and S2 should be different solvents. It is also possible to add the active principle to the solvent S2 in an amount that only a part of it is dissolved in S2, and a part of it remains dispersed as a solid in the solvent S2. Using the process described herein, the active principle can also be encapsulated/embedded in the polymer at a high efficiency in this case. […] Nevertheless, the following table summarizes the solubility of asenapine maleate in a variety of solvents.

[3] = cited from earlier work
serotonin receptors = settings: rank among receptor classes; cited from earlier work
muscarinic receptors = settings: cited from earlier work

For `CC(C)=O` [acetone], the solubility in water [1] is listed as “soluble”.
Work on `CN1CC2c3ccccc3Oc3ccc(Cl)cc3C2C1` (stereo not shown) [asenapine maleate] yielded a solubility ([2]; DMSO) of 700 mg/mL, a solubility ([2]; THF) of 100 mg/mL and a solubility ([2]; solvent EMK) of 50 mg/mL. For the same molecule, the solubility ([2]; solvent NMP) was 700 mg/mL, the solubility ([2]; solvent acetone) was 67 mg/mL and the solubility ([2]; solvent benzyl alcohol) was 500 mg/mL. It also gave a solubility ([2]; solvent benzyl benzoate) of 7 mg/mL, a solubility ([2]; solvent dimethycarbonate) of 7 mg/mL and a solubility ([2]; solvent dimethylacetamide) of 500 mg/mL. For the same molecule, the solubility ([2]; solvent ethanol) was 100 mg/mL, the solubility ([2]; solvent ethyl acetate) was 10 mg/mL and the solubility ([2]; solvent ethyl benzoate) was 10 mg/mL. It also gave a solubility ([2]; solvent ethyl formate) of 100 mg/mL, a solubility ([2]; solvent glycofurol) of 270 mg/mL and a solubility ([2]; solvent isopropanol) of 7 mg/mL. For the same molecule, the solubility ([2]; solvent isopropyl acetate) was 9 mg/mL, the solubility ([2]; solvent isopropyl formate) was 100 mg/mL and the solubility ([2]; solvent methyl acetate) was 25 mg/mL. The solubility ([2]; solvent methyl benzoate) was 20 mg/mL.
For `CN1CC2c3ccccc3Oc3ccc(Cl)cc3C2C1` (stereo not drawn) [asenapine, trans-5-chloro-2,3,3a,12b-tetrahydro-2-methyl-1-H-dibenz[2,3:6,7]oxepino[4,5-c]pyrrole], the bioavailability ([3]; oral formulations) is given as 2%, the bioavailability ([3]; sublingual tablets) is given as 35% and the “affinity for blocking serotonin receptors” value (serotonin receptors) is given as “highest affinity”. For the same molecule, the “affinity for muscarinic receptors” value (muscarinic receptors) was “minimal affinity”.
For glycofurol, the solubility in water [1] is listed as “soluble”.

Reference: patent US20170231957A1, “INJECTABLE FORMULATIONS OF ASENAPINE” (ALRISE Biosystems GmbH, priority 2014, published 2017)
